Data: PMC8284461, “Piperidine-4-Carboxamides Target DNA Gyrase in Mycobacterium abscessus” (Antimicrobial Agents and Chemotherapy, 2021)
≈ marks a conversion by molar mass, not a printed value.

Assays:
[1] = tested on: M. abscessus subsp. abscessus ATCC 19977 844-TMF^r-4 (GyrB M474I); assay: MIC, resistant mutant; type: cell-based, Mycobacterium abscessus; details: Mycobacteroides abscessus, ATCC19977
[2] = tested on: M. abscessus subsp. abscessus Bamboo 844^r-2 (GyrA D91N); assay: MIC, resistant mutant; type: cell-based, Mycobacterium abscessus; details: Mycobacteroides abscessus
[3] = tested on: M. abscessus subsp. abscessus ATCC 19977 MXF^r-1 (GyrA D96Y); assay: MIC, resistant mutant; type: cell-based, Mycobacterium abscessus; details: Mycobacteroides abscessus, ATCC19977
[4] = tested on: M. abscessus subsp. abscessus ATCC 19977 MXF^r-2 (GyrA D96N); assay: MIC, resistant mutant; type: cell-based, Mycobacterium abscessus; details: Mycobacteroides abscessus, ATCC19977
[5] = tested on: M. abscessus subsp. abscessus ATCC 19977 MXF^r-3 (GyrA D96G); assay: MIC, resistant mutant; type: cell-based, Mycobacterium abscessus; details: Mycobacteroides abscessus, ATCC19977
[6] = tested on: M. abscessus subsp. abscessus Bamboo 844^r-3 (GyrB S473W); assay: MIC, resistant mutant; type: cell-based, Mycobacterium abscessus; details: Mycobacteroides abscessus
[7] = tested on: M. abscessus subsp. abscessus Bamboo; assay: MIC, broth microdilution; type: cell-based, Mycobacterium abscessus; details: abscessus Bamboo wild type, 90% growth inhibition, 3 days
Protocol: (§1) MIC was determined using the broth microdilution method in 96-well plates as described previously ([47]). Briefly, a 10-point 2-fold serial dilution of compounds was performed in 96-well plates (Costar 3370; Corning, USA) starting at twice the desired highest concentration. […] One hundred microliters of the bacterial suspension was seeded onto the 96-well plates containing 100 μl of the serially diluted compounds to give a final volume of 200 μl in each well with the final OD600 of 0.005. The plates were sealed with parafilm, placed onto wet paper towels in a lock-lock box and incubated for 3 days at 37°C with orbital shaking at 90 rpm. […] Absorbance values at day 3 were subtracted from the day 0 readout. Percent growth inhibition was calculated by dividing the absolute absorbance value of treated cells with untreated control and multiplying by 100. CLR was included in all MIC experiments as a positive control to monitor assay reproducibility. MIC was defined as 90% of growth inhibition relative to untreated controls.

[8] = tested on: M. abscessus subsp. abscessus M421; assay: MIC, broth microdilution; type: cell-based, Mycobacterium abscessus; details: Mycobacteroides abscessus, 72 h, 90% growth inhibition, 3 days
Protocol: as §1

[9] = tested on: M. abscessus subsp. abscessus ATCC 19977; assay: MIC, broth microdilution; type: cell-based, Mycobacterium abscessus; details: abscessus ATCC 19977 wild type, 90% growth inhibition, 3 days
Protocol: as §1

[10] = tested on: M. abscessus subsp. abscessus K21; assay: MIC, broth microdilution; type: cell-based, Mycobacterium abscessus; details: Mycobacteroides abscessus, 72 h, 90% growth inhibition, 3 days
Protocol: as §1

[11] = tested on: M. abscessus subsp. abscessus M9; assay: MIC, broth microdilution; type: cell-based, Mycobacterium abscessus; details: Mycobacteroides abscessus, 72 h, 90% growth inhibition, 3 days
Protocol: as §1

[12] = tested on: M. abscessus subsp. abscessus M404; assay: MIC, broth microdilution; type: cell-based, Mycobacterium abscessus; details: Mycobacteroides abscessus, 72 h, 90% growth inhibition, 3 days
Protocol: as §1

[13] = tested on: M. abscessus subsp. massiliense CCUG 48898T; assay: MIC, broth microdilution; type: cell-based, Mycobacterium abscessus; details: Mycobacteroides abscessus, 72 h, 90% growth inhibition, 3 days
Protocol: as §1

[14] = tested on: M. abscessus subsp. bolletii CCUG 50184T; assay: MIC, broth microdilution; type: cell-based, Mycobacterium abscessus; details: Mycobacteroides abscessus, 72 h, 90% growth inhibition, 3 days
Protocol: as §1

[15] = tested on: M. abscessus subsp. abscessus M337; assay: MIC, broth microdilution; type: cell-based, Mycobacterium abscessus; details: Mycobacteroides abscessus, 72 h, 90% growth inhibition, 3 days
Protocol: as §1

[16] = tested on: M. abscessus subsp. massiliense M111; assay: MIC, broth microdilution; type: cell-based, Mycobacterium abscessus; details: Mycobacteroides abscessus, 72 h, 90% growth inhibition, 3 days
Protocol: as §1

[17] = tested on: M. abscessus subsp. bolletii M506; assay: MIC, broth microdilution; type: cell-based, Mycobacterium abscessus; details: Mycobacteroides abscessus, 72 h, 90% growth inhibition, 3 days
Protocol: as §1

[18] = tested on: M. abscessus subsp. abscessus M199; assay: MIC, broth microdilution; type: cell-based, Mycobacterium abscessus; details: Mycobacteroides abscessus, 72 h, 90% growth inhibition, 3 days
Protocol: as §1

[19] = tested on: M. abscessus subsp. bolletii M232; assay: MIC, broth microdilution; type: cell-based, Mycobacterium abscessus; details: Mycobacteroides abscessus, 72 h, 90% growth inhibition, 3 days
Protocol: as §1

[20] = target: recombinant M. abscessus wild-type DNA gyrase (Mycobacteroides abscessus, UniProt B1ME45+B1ME58); assay: biochemical; set-up: species or system Mycobacterium abscessus; details: wild-type DNA gyrase; for IC50: relaxed pBR322 substrate, read-out: IC50, supercoiling activity
[21] = tested on: P4C-resistant M. abscessus strains; assay: Cross-resistance, MICs for P4C-resistant strains; type: cell-based, Mycobacterium abscessus; details: P4C-resistant strains of Table 2
[22] = target: GyrA D91N mutant recombinant M. abscessus DNA gyrase (Mycobacteroides abscessus, UniProt B1ME45+B1ME58, D91N); type: biochemical, Mycobacterium abscessus
[23] = tested on: M. abscessus subsp. abscessus Bamboo; assay: Selection and characterization of spontaneous resistant mutants; type: cell-based, Mycobacterium abscessus; details: agar with 8× MIC
[24] = tested on: M. abscessus subsp. abscessus ATCC 19977 biofilm; assay: Antibiofilm activity, MBEC biofilm assay; type: cell-based, Mycobacterium abscessus; details: 1×, 4×, 8× MIC; surface-attached CFU after 2 and 3 days
Protocol: The antibiofilm activity of 844 and 844-TMF was determined employing the MBEC 96-well Biofilm assay kit (19111; Innovotech, Edmonton, AB, Canada) as described previously ([15]) with minor modifications. Briefly, exponentially growing M. abscessus subsp. abscessus ATCC 19977 cultures were spun down at 3,200 × g for 10 min and washed with 7H9 broth without Tween 80 (‘7H9’). Bacteria were resuspended in ‘7H9’ to an OD600 of 0.0125, and 150 μl was dispensed into the wells of Innovotech 96-well plates. Pegs (protruding from the specialized lids of the Innovotech multiwell plates) were inserted into the bacterial suspensions in the wells, and the cultures were grown 24 h with shaking at 110 rpm at 37°C to allow attachment and growth of the bacteria on the surface of the pegs. […] Biofilm growth on the pegs was measured by CFU determination. The pegs were washed in 200 μl ‘7H9’ medium, removed, and placed in 1.7-ml microcentrifuge tubes (87003-294; VWR, Radnor, PA, USA) containing 500 μl PBS/Tween 80 (0.025%). The tubes were vortexed at 2,000 rpm for 90 s to detach and suspend the bacteria from the pegs before samples were serially diluted and plated onto 7H10 agar supplemented with 0.4% activated charcoal to determine CFU/peg.

[25] = tested on: M. abscessus subsp. abscessus ATCC 19977; assay: Time-concentration kill assay, planktonic cultures; type: cell-based, Mycobacterium abscessus; details: 1×, 4×, 8× MIC; CFU after 2 and 3 days
Protocol: At 0, 2, and 3 days, tubes were vortexed, and 20 μl of the cultures was transferred to round-bottom 96-well plates containing 180 μl of phosphate-buffered saline (PBS) (10010023; Thermo Fisher, USA) with 0.025% Tween 80 (PBS/Tween 80) for 10-fold serial dilution. To prevent compound carryover effects, we plated out serially diluted samples onto 7H10 agar supplemented with 0.4% activated charcoal (C9154; Sigma-Aldrich, USA) for all time points as described ([48]). CFU were enumerated after 4 days of incubation at 37°C.

[26] = tested on: M. abscessus complex strains; assay: MIC across reference strains and clinical isolates; type: cell-based, Mycobacterium abscessus; details: Mycobacteroides abscessus; reference strains and clinical isolates of Table 1; read-out: MICs ranging across the M. abscessus complex strains
Protocol: as §1

[27] = Mycobacteroides abscessus, 72 h
[28] = Mycobacteroides abscessus, ATCC19977, 72 h

recombinant M. abscessus wild-type DNA gyrase, sequence (B1ME58 entry or part of it): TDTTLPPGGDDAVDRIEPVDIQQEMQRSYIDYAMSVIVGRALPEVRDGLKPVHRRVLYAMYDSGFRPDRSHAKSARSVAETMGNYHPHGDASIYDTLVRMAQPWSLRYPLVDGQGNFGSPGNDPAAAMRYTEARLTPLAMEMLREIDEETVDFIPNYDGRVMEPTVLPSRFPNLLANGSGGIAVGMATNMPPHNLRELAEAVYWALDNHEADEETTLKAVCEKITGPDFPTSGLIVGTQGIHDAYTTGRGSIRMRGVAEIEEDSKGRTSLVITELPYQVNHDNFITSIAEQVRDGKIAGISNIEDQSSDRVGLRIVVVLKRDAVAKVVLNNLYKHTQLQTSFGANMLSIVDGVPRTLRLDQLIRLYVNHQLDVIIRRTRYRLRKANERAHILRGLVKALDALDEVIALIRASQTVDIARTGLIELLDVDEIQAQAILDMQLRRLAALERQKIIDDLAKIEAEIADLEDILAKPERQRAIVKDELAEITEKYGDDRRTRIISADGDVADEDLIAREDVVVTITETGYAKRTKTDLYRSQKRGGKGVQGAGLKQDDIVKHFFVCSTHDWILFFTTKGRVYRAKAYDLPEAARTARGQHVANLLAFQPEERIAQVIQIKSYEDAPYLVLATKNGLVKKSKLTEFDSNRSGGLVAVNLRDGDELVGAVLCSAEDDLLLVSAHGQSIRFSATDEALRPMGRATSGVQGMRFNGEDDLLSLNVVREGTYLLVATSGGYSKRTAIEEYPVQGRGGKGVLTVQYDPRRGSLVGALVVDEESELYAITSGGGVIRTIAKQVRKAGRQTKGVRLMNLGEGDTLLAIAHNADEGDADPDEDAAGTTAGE
recombinant M. abscessus wild-type DNA gyrase, sequence (B1ME45 entry or part of it): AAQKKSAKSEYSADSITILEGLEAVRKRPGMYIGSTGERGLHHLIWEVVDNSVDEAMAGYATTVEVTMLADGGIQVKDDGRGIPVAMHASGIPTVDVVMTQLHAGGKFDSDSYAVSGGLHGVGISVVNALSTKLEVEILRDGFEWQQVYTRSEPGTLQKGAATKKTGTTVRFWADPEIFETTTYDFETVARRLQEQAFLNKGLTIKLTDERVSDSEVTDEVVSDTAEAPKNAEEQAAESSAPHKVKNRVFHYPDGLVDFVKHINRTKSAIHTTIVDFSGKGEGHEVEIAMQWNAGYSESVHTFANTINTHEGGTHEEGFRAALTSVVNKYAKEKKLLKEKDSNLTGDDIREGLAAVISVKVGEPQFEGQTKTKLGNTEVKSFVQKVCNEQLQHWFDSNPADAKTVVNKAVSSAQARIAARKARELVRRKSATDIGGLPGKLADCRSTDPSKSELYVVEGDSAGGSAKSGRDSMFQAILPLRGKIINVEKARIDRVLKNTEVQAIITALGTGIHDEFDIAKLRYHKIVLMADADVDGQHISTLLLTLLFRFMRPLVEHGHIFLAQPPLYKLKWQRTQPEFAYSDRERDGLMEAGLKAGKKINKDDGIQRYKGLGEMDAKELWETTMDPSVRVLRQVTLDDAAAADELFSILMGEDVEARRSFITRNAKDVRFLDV
GyrA D91N mutant recombinant M. abscessus DNA gyrase, sequence (B1ME58 2-839, stated change not applied): as the sequence (B1ME58 entry or part of it) above
GyrA D91N mutant recombinant M. abscessus DNA gyrase, sequence (B1ME45 2-675, stated change not applied): as the sequence (B1ME45 entry or part of it) above

Row | SMILES | MIC [1] | MIC [2] | MIC [3] | MIC [4] | MIC [5] | MIC [6] | MIC [7, 27] | MIC [7] | MIC [8] | MIC [9, 28] | MIC [10] | MIC [11] | MIC [12] | MIC [13] | MIC [14] | MIC [15] | MIC [16] | MIC [17] | MIC [18] | MIC [19] | other results
1 | COc1c(N2C[C@@H]3CCCN[C@@H]3C2)c(F)cc2c(=O)c(C(=O)O)cn(C3CC3)c12 [MXF, moxifloxacin] | 2 µM (≈ 0.803 µg/mL) | 30 µM (≈ 12 µg/mL) | 100 µM (≈ 40.1 µg/mL) | 80 µM (≈ 32.1 µg/mL) | 80 µM (≈ 32.1 µg/mL) | 2 µM (≈ 0.803 µg/mL) | 4 µM (≈ 1.61 µg/mL) | 4 µM (≈ 1.61 µg/mL) | 1.5 µM (≈ 0.602 µg/mL) | 3 µM (≈ 1.2 µg/mL) | 3 µM (≈ 1.2 µg/mL) | 1.5 µM (≈ 0.602 µg/mL) | 3 µM (≈ 1.2 µg/mL) | 6.3 µM (≈ 2.53 µg/mL) | 6.3 µM (≈ 2.53 µg/mL) | 1.5 µM (≈ 0.602 µg/mL) | 3.2 µM (≈ 1.28 µg/mL) | 2.5 µM (≈ 1 µg/mL) | 2.5 µM (≈ 1 µg/mL) | 1.5 µM (≈ 0.602 µg/mL) | –
2 | CCNC(=O)Nc1nc2cc(-c3cnc(C(C)(C)O)nc3)c(F)c([C@H]3CCCO3)c2[nH]1 [SPR719] | 0.3 µM (≈ 0.129 µg/mL) | 0.1 µM (≈ 0.0428 µg/mL) | 0.8 µM (≈ 0.343 µg/mL) | 0.2 µM (≈ 0.0857 µg/mL) | 0.3 µM (≈ 0.129 µg/mL) | 0.05 µM (≈ 0.0214 µg/mL) | 0.8 µM (≈ 0.343 µg/mL) | – | 0.8 µM (≈ 0.343 µg/mL) | 0.6 µM (≈ 0.257 µg/mL) | 1.5 µM (≈ 0.643 µg/mL) | 1.5 µM (≈ 0.643 µg/mL) | 1.5 µM (≈ 0.643 µg/mL) | 3 µM (≈ 1.29 µg/mL) | 1.5 µM (≈ 0.643 µg/mL) | 0.8 µM (≈ 0.343 µg/mL) | 6.3 µM (≈ 2.7 µg/mL) | 1.5 µM (≈ 0.643 µg/mL) | 1.5 µM (≈ 0.643 µg/mL) | 1.5 µM (≈ 0.643 µg/mL) | IC50 [20]: 2.3 µM; effect on supercoiling activity ([20]; up to 50 μM): inhibited supercoiling activity; cross-resistance caused by P4C resistance mutations [21]: did not cause cross-resistance; IC50, supercoiling activity [22]: same IC50 as the wild-type enzyme
3 | COc1ccc2nccc(NC(=O)C3CCN(CCc4ccc(Cl)cc4)CC3)c2n1 [compound 844] | 40 µM (≈ 17 µg/mL) | > 100 µM | 40 µM (≈ 17 µg/mL) | 15 µM (≈ 6.37 µg/mL) | 15 µM (≈ 6.37 µg/mL) | 90 µM (≈ 38.2 µg/mL) | 12 µM (≈ 5.1 µg/mL) | 12 µM (≈ 5.1 µg/mL) | 6.3 µM (≈ 2.68 µg/mL) | 8 µM (≈ 3.4 µg/mL) | 14 µM (≈ 5.95 µg/mL) | 6.3 µM (≈ 2.68 µg/mL) | 6.3 µM (≈ 2.68 µg/mL) | 14 µM (≈ 5.95 µg/mL) | 14 µM (≈ 5.95 µg/mL) | 6.3 µM (≈ 2.68 µg/mL) | 12.5 µM (≈ 5.31 µg/mL) | 6.3 µM (≈ 2.68 µg/mL) | 6.3 µM (≈ 2.68 µg/mL) | 6.3 µM (≈ 2.68 µg/mL) | IC50 [20]: 4.6 µM; frequency of spontaneous resistance [23]: 10^−8 /CFU; bactericidal activity against M. abscessus grown as biofilm [24]: bactericidal; bactericidal activity in planktonic cultures [25]: bactericidal; MIC [9]: 8 µM (≈ 3.4 µg/mL); effect on supercoiling activity ([22]; GyrA D91N mutant DNA gyrase, up to 50 μM): No inhibition; MIC [26]: 6 to 14 µM (≈ 2.55 to 5.95 µg/mL)
